Experiments:
[1] = test system: TNF-α; test: Ex vivo cytokine induction in human whole blood, TNF-α sandwich ELISA; assay type: cell-based; conditions: 1, 5 and 10 μg/ml in the assay; 4 hr at 37° C.
Description: (§1) The effects of RC-553 on the elaboration of TNF-α and IL-1β was measured under ex vivo conditions on human peripheral blood mononuclear cells. MPL® immunostimulant and RC-553 were formulated in aqueous solutions of 0.2% TEoA/WFI.
(§2) Human whole blood was used to evaluate the ability of glycolipids (AGPs) to induce proinflammatory cytokines. Human whole blood is collected into heparinized tubes and 0.45 ml of whole blood is admixed with 0.05 ml phosphate buffered saline (PBS, pH 7.4) containing the glycolipid (i.e., the test compounds). The tubes are incubated for 4 hr at 37° C. on a shaker apparatus. The samples are then diluted with 1.5 ml sterile PBS and centrifuged. The supernatants are removed and analyzed for […] TNF-α and IL-1β by sandwich ELISA using R&D Systems' Quantikine immunoassay kits for human TNF-α and IL-1β.

[2] = test system: HBsAg; test: Adjuvant activity towards HBsAg, IgG1 and IgG2a isotype titers by ELISA (Example 4); assay type: in vivo, BALB/c mice
Description: IgG1 and IgG2a isotype titers to HBsAg were determined by ELISA from pooled sera collected 21 days post secondary (Table 3). The nonimmune controls were not vaccinated. […] RC-553 stimulated titers equivalent to the positive controls, MPL® immunostimulant (Table 3).

[3] = test system: IL-1β; test: Ex vivo cytokine induction in human whole blood, IL-1β sandwich ELISA; assay type: cell-based
Description: as §1, §2

[4] = test system: HBsAg (Hepatitis B Surface Antigen); test: Adjuvant activity towards HBsAg, serum titers by ELISA (Example 2); assay type: in vivo, BALB/c mice
Description: Vaccines were prepared by mixing the adjuvant-containing TEoA (triethanolamine) formulations with recombinant HBsAg. Titers to HBsAg were determined by ELISA from pooled sera (5 mice/group) collected 21 days post-secondary vaccination (Table 1). The nonimmune controls were not vaccinated.

[5] = Rabbit pyrogen test; assay type: in vivo; conditions: i.v. 10 μg/Kg dose
Description: In an effort to obtain an immunostimulant that has low pyrogenicity, synthetic molecules have been prepared which share structural similarities with the MPL® immunostimulant (see U.S. patent application Ser. No. 09/810,915, Filed on Mar. 16, 2001, and the present invention). These novel molecules which are collectively called aminoalkyl glucosaminide phosphates (AGPs), consist of an acylated […] moiety linked to an acylated aminoalkyl group (Johnson et al. (1999) Bioorg. Med. Chem. Lett. 9: 2273-2278; PCT/WO98/50399 and references therein). […] The substitution of different chemical moieties within the aminoalkyl structures was designed into the AGPs in anticipation of optimizing stability and solubility properties. Thus the AGPs can be broadly separated into several families based on the structure of their aminoalkyl groups. […] Here we report on studies of the adjuvant properties of a class of AGPs which induce minimal activity in both the rabbit pyrogen test and the ex vivo cytokine assay.

[6] = test system: iNOS; test: iNOS induction in IFN-γ primed J774 murine macrophages, Greiss reagent nitrite release; assay type: cell-based; conditions: J774 cells primed with IFN-γ
Description: This example illustrates the effects of various glycolipids on iNOS induction in J774 murine macrophages. The murine macrophage cell line J774 can be primed by IFN-γ in vitro and is very responsive to subsequent LPS stimulation of iNOS upregulation as measured by a standard Greiss reagent ELISA assay procedure. The assay utilizes J774 cells seeded at 1×10^6/mL with 30 mL/flask and with IFN-γ added at 100 units/mL for 16-24 hrs. Cells are then harvested and washed and resuspended at 2×10^5/well in a 96-well plate and allowed to adhere. Glycolipid compounds are serially diluted into the wells for a test group and the resulting cultures are incubated for another 36-40 hrs before culture supernatants are collected from Greiss reagent analysis of nitrite release (Green et al. (1982) Anal. Biochem. 126: 131-138). Nitrite content closely parallels iNOS function.
Potency was determined as the concentration (ng/mL) of glycolipid in culture capable of inducing one-half maximal induction of nitrite (ED50). The lower the ED50 number, the greater the potency for iNOS induction. The ED50 was cacluated according to methods set out in Johnson et al., (1999) J Med Chem. 42: 4640-4649.

[7] = anti-HBsAg, 2.0 μg HBsAg + 25 μg adjuvant s.c. day 0 and 21, pooled sera 21 days post secondary
[8] = anti-HBsAg, 2 μg HBsAg + 20 μg adjuvant s.c. day 0 and 21, pooled sera 21 days post-secondary

Q: Which “Levels of TNF-α produced” value [1] does the source give for “N—[(R)-3-Tetradecanoyloxytetradecanoyl]-(S)-2-pyrrolidinomethyl 2-Deoxy-4-O-phosphono-2-[(R)-3-tetradecanoyloxytetradecanoylamino]-3-O—[(R)-3-tetradecanoyloxytetradecanoyl]-β-D-glucopyranoside Triethylammonium Salt [RC-553]” here?
A: did not produce levels of TNF-α that could be detected

Q: What about the “HBsAg titers versus control group which received antigen in PBS” value ([2]; Example 4) of the same substance?
A: increased titers compared to the control group

Q: What about the “Serum Titers IgG1” value [2, 7] of the same substance?
A: 32,000

Q: What about the “Serum Titers IgG2a” value [2, 7] of the same substance?
A: 2,048,000

Q: And the “Levels of IL-1β produced” value ([3]; 1, 5, and 10 μg/ml, 4 hr at 37° C.)?
A: did not produce detectable levels of IL-1β

Q: And the “Relative induction of cytokines (IL-1β), MPL® immunostimulant assigned a value of 1” value ([3]; relative to MPL® immunostimulant = 1)?
A: ≤ 0.05

Q: And the “anti-HBsAg responses (serum titers) versus antigen alone” value ([4]; Example 2)?
A: significantly higher than control sera receiving antigen alone

Q: What about the “Serum Titers IgG” value [4, 8] of the same substance?
A: 409,600

Q: And the “Serum Titers IgG1” value [4, 8]?
A: 204,800

Q: What about the “Serum Titers IgG2a” value [4, 8] of the same substance?
A: 409,600

Q: And the “Serum Titers IgG2b” value [4, 8]?
A: 51,200

Q: What about the “Pyrogenicity (total rise in ° C. of 3 rabbits)” value (from here on “Pyrogenicity”) ([5]; Table 2) of the same substance?
A: 0.3 °C

Q: And the “Pyrogenicity” value ([5]; Table 3)?
A: 0.3 °C

Q: What about the “Pyrogenicity” value ([5]; Table 4) of the same substance?
A: 0.3 °C

Q: What about the “Pyrogenicity” value ([5]; solubilized in 10% EtOH/WFI, diluted with 5% dextrose in water, Table 1) of the same substance?
A: 0.3 °C

Q: And the “Maximal iNOS activity / iNOS induction” value [6]?
A: essentially inactive
